Here are results for 4 compounds from patent publication US10955421B2, “Detection of membrane proteins” (Oxford University Innovation Limited, priority 2017, dated 2021).

For assay [1], the system named is human P2Y1 purinergic receptor (P2Y1R). The assay can be described thus: Native mass spectrometry of P2Y1R ligand binding in Fos-Choline-16. How it is done: P2Y1R and P2Y1R-MRS2500 complex were prepared as described in Zhang et al., Nature, 2015, 520, 317.
(§1) Purified GPCRs were buffer exchanged into 50-200 mM ammonium acetate containing Fos-Choline detergents at 2 times critical micelle concentration (CMC) by using Bio-Spin size exclusion spin column (Bio-rad) prior to mass spectrometer analysis. Detergent exchange could be also performed by size exclusion chromatography equipped with FPLC system. Protein samples were fractionized by the size exclusion columns equilibrated with 50-200 mM ammonium acetate containing Fos-choline detergents at 2 times CMC, and the protein fractions were collected and concentrated by centrifugation-based protein concentrators Vivaspin.
The measurement of GPCRs was performed on a modified Synapt G1 (Waters) or a modified Q-Exactive (Thermo) mass spectrometer. The data in Examples 2 and 4 were obtained using a Q-Exactive mass spectrometer, whereas the data in Example 3 were obtained using a Synapt G1 mass spectrometer.
The Q-Exactive mass spectrometer was set up according to Gault et al. (Nat. Methods 13, 333-336, 2016). Briefly, a gentle voltage gradient was applied (injection flatapole, inter flatapole, bent flatapole, transfer multipole: 7.9, 6.94, 5.9, 4 V respectively). The acceleration voltage applied in HCD cell was optimized for GPCRs (60-150 V) to remove the detergent micelles from protein ions. Spectra were acquired with ten microscans and the noise level parameter of 3 was applied. Backing pressure was maintained at 1.05-1.3×10^−9 mBar to allow better transmission of GPCR ions.
High-resolution MS was used to probe the drug/ligand interactions of human P2Y1R purified from insect cells. By controlled application of collisional activation, intact P2Y1R was liberated from its detergent micelle, preserving the non-covalent interactions formed in solution. The phosphate-containing detergent of Example 1 (Fos-16) was used in these experiments.

Assay [2] concerns the target T1, NTR1 (Rattus norvegicus, UniProt P20789). The assay can be described thus: Detergent screening by neurotensin-binding assay (BODIPY-NT8-13). Particulars: BODIPY-NT8-13 bound to NTR1 in detergent extract, room temperature, 1 hr (FIG. 1C). As for the experimental part: (§2) The gene fragment of rat NTR1 (wild-type, 1-424) with exogenous c-terminal Flag- and His-tag was constructed into modified pHLsec vector for transient protein overexpression. Plasmids were transfected into HEK293T cells via a liposome-based method with Lipofectamine 2000 transfection reagent and the cells were harvested 24 hrs after transfection for further experiments.
Protein extract from HEK293T cells with NTR1 overexpression was incubated with BODIPY-labelled neurotensin 8-13 (BODIPY-NT8-13) at room temperature for 1 hr. The unbound BODIPY-NT8-13 was removed by Bio-Spin size exclusion spin column (Bio-rad) and the fluorescent signal of BODIPY-NT8-13 bound to receptor was detected by fluorescence microplate reader.
Various detergents were assessed for their ability to preserve the conformation and activity of NTR1. The detergents assessed were: (1) n-dodecyl-β-D-maltoside (DDM); (2) n-undecyl-β-D-maltoside (UDM); (3) n-nonyl-β-D-glucopyranoside (NG); (4) n-octyl-β-D-glucopyranoside (OG); (5) octyl glucose neopentyl glycol (OGNG); (6) n-octyl-β-D-thioglucopyranoside (OTG); (7) tetraethylene glycol monooctyl ether (C8E4); (8) hexaethylene glycol monodecyl ether (C10E6); (9) polyethylene glycol tert-octylphenyl ether (Triton X-100); (10) lauryldimethylamine-N-oxide (LDAO); and (11) hexadecylphosphocholine (Fos-Choline-16).

Assay [3] addresses T1, NTR1. Nature of the assay: Detergent screening by western blotting (receptor aggregation). Particulars: NTR1 solubilised from HEK293T cells in 1% detergent; compared with the other detergents tested (FIGS. 1A and B). How it is done:
as §2
HEK293T cells with NTR1 overexpression were lysed in lysis buffer (100 mM sodium phosphate, pH 7.2, 150 mM NaCl, 10% glycerol, 1× EDTA-free protease inhibitor cocktail from Roche) containing 1% various detergents for screening. Cell lysate was harvested after pelleting down the debris by centrifugation, and protein concentration was measured by Pierce 660 nm protein assay reagent (Pierce). Equal amounts of protein extract in different detergents were applied for western blotting to detect NTR1 by using an anti-His tag antibody. Semi-quantification was performed by Gel-pro software to quantify the protein amount and relative ratio of protein aggregation.
Various detergents were assessed for their ability to preserve the conformation and activity of NTR1. […]
For orientation: In western blotting, separated proteins are transferred to a membrane and probed.

Assay [4] deals with T1, NTR1. Nature of the assay: Native mass spectrometry of PIP2 binding to NTR1 in Fos-Choline-16. Particulars: after incubation of PIP2 and NTR1 in Fos-Choline-16 (FIG. 6A). How it is done:
as §1
PIP2 powder (Avanti) was dissolved into solvent containing chloroform, methanol and H2O with volume ratio of 20:9:1. The aliquoted PIP2 solution was dried out by gas-assisted evaporation and re-suspended into 50-200 mM ammonium acetate containing 0.00106% Fos-Choline-16, followed by sonication in water bath for 30 mins.
The measurement of GPCRs was performed on a modified Synapt G1 (Waters) or a modified Q-Exactive (Thermo) mass spectrometer. The data in Examples 2 and 4 were obtained using a Q-Exactive mass spectrometer, whereas the data in Example 3 were obtained using a Synapt G1 mass spectrometer. […]

Setting [5] is: 1:0.5 molar ratio of protein to ATP (FIG. 3B).
Where [6] appears, read: endogenous nucleotide, purified P2Y1R, UniDec deconvolution (FIG. 2A).

T1 sequence (P20789 whole entry, the tested form may be a part): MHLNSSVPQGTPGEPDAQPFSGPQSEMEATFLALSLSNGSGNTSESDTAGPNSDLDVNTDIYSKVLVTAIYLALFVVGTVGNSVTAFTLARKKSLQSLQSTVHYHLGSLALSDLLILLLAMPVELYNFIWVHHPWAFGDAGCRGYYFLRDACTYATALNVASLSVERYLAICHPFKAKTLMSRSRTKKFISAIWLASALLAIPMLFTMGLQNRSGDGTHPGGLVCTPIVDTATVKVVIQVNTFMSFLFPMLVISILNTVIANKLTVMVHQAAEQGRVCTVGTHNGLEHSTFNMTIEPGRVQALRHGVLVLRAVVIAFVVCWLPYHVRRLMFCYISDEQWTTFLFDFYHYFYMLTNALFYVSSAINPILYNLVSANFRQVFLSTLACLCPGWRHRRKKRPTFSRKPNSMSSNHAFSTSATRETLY

As to `Nc1ncnc2c1ncn2[C@@H]1O[C@H](COP(=O)(O)OP(=O)(O)OP(=O)(O)O)[C@@H](O)[C@H]1O` [ATP, adenosine 5′-triphosphate], in assay [1] (setting [5]), the “ADP-bound receptor converted into the ATP bound state” value is about 30% and the “apo receptor converted into the ATP bound state” value is “around 80%”. For the same compound, the “displacement of MRS2500 from the P2Y1R-MRS2500 complex” value in assay [1] (1:2 molar P2Y1R:ATP, 30 min incubation at 37° C. (FIG. 4)) is “complete displacement of MRS2500”. Moreover, the “further decrease of ADP binding” value in assay [1] (2 molar excess of ATP (FIG. 3C)) is given as 40%. In assay [1] (setting [6]), the “ATP-binding ratio of phosphorylated P2Y1R” value was determined as 39.6% and the “ATP-binding ratio of receptor without phosphorylation” value worked out at 41.5%.
Turning to `CCCCCCCCCCCCCCCCOP(=O)([O-])OCC[N+](C)(C)C` [Fos-Choline-16, n-hexadecylphosphocholine], the ligand binding activity entry in assay [2] is given as “substantially preserved”. Further, the “receptor aggregation and oligomerisation” value in assay [3] was “less receptor aggregation and oligomerisation”.
Regarding `CNc1nc(I)nc2c1ncn2[C@H]1C[C@H](OP(=O)(O)O)[C@]2(COP(=O)(O)O)C[C@H]12` [MRS2500, (1′R2′S,4′S,5′S)-4-(2-iodo-6-methylamino-purine-9-yl)-1-[(phosphato)methyl] 2(phosphato)bicycle[3.1.0]-hexane], the “ADP binding in the presence of the drug” value in assay [1] (P2Y1R purified in the presence of MRS2500) is on record as “No ADP binding was detected”. For the same compound, the “percentage of interaction with P2Y1R” value in assay [1] (P2Y1R purified in the presence of MRS2500 (FIG. 2B)) was 100 percentage.
As to PIP2, the “PIP2 binding of NTR1” value in assay [4] is “Multiple binding”.
